Results published in ChEMBL document CHEMBL5523732, “Structure-Guided Design of Potent Coronavirus Inhibitors with a 2-Pyrrolidone Scaffold: Biochemical, Crystallographic, and Virological Studies” (J Med Chem, 2024).

Assays:
[1] = Inhibition of MERS-CoV 3CLpro using SG-QXL520 as substrate preincubated with compound for 30 mins followed by susbtrate addition and measured after 30 mins by FRET assay; set-up: species or system Middle East respiratory syndrome-related coronavirus
[2] = Cytotoxicity against cat CRFK cells incubated for 72 hrs by CytoTox 96 analysis; format: toxicity, cell-based, Felis catus
[3] = molecular target: Replicase polyprotein 1ab (Severe acute respiratory syndrome coronavirus 2, UniProt P0DTD1); assay: Inhibition of full length N-terminal his6-tagged SARS-CoV-2 3CL protease using FAM-SAVLQ as substrate preincubated with compound for 30 mins followed by substrate addition and measured after 30 mins by FRET assay
SARS-CoV-2 = assay: Antiviral activity against SARS CoV-2 Wuhan-Hu-1 infected in HEK293T cells incubated for 24 hrs; format: functional, organism-based; settings: Severe acute respiratory syndrome coronavirus 2, Wuhan-Hu-1, HEK-293T

SMILES	IC50 [1] [nM]	CC50 at 72 h [2] [nM]	IC50 [3] [nM]	EC50 (SARS-CoV-2) [nM]
CC(C)C[C@H](NC(=O)OCC1CCN(Cc2ccco2)C1=O)C(=O)N[C@@H](C[C@@H]1CCNC1=O)C(O)S(=O)(=O)O (stereo partly drawn)	150	> 50000	2010	
CC(C)C[C@H](NC(=O)OCC1CC(=O)N(Cc2cccc(C(F)(F)F)c2)C1)C(=O)N[C@H](C=O)C[C@@H]1CCNC1=O (stereo partly drawn)	60	> 50000	410	
CC(C)C[C@H](NC(=O)OCC1CCN(C[C@H]2C[C@H]3CC[C@@H]2C3)C1=O)C(=O)N[C@@H](C[C@@H]1CCNC1=O)C(O)S(=O)(=O)O (stereo partly drawn)	130	> 50000	510	
CC(C)C[C@H](NC(=O)OC[C@@H]1CCC(=O)N1CCC1CCCCC1)C(=O)N[C@@H](C[C@@H]1CCNC1=O)C(O)S(=O)(=O)O (stereo partly drawn)	90	> 50000	580	
CC(C)C[C@H](NC(=O)OC[C@@H]1CCC(=O)N1CCC1CCCCC1)C(=O)N[C@H](C=O)C[C@@H]1CCNC1=O	90	> 50000	500	
CC(C)C[C@H](NC(=O)OC[C@@H]1CCC(=O)N1C[C@H]1C[C@@H]2C=C[C@H]1C2)C(=O)N[C@H](C=O)C[C@@H]1CCNC1=O	60	> 50000	418	
CC(C)C[C@H](NC(=O)OCC1CCN(Cc2cccc(C(F)(F)F)c2)C1=O)C(=O)N[C@H](C=O)C[C@@H]1CCNC1=O (stereo partly drawn)	70	> 50000	850	
CC(C)C[C@H](NC(=O)OCC1CC(=O)N(Cc2ccco2)C1)C(=O)N[C@@H](C[C@@H]1CCNC1=O)C(O)S(=O)(=O)O (stereo partly drawn)	80	> 50000	560	
CC(C)C[C@H](NC(=O)OC[C@@H]1CCC(=O)N1CC1CCCCC1)C(=O)N[C@@H](C[C@@H]1CCNC1=O)C(O)S(=O)(=O)O (stereo partly drawn)	60	> 50000	280	790
CC(C)C[C@H](NC(=O)OC[C@@H]1CCC(=O)N1Cc1cccc(F)c1)C(=O)N[C@H](C=O)C[C@@H]1CCNC1=O	430	> 50000	110	50
CC(C)C[C@H](NC(=O)OC[C@@H]1CCC(=O)N1Cc1ccc2c(c1)OC(F)(F)O2)C(=O)N[C@@H](C[C@@H]1CCNC1=O)C(O)S(=O)(=O)O (stereo partly drawn)	50	> 50000	320	450
CC(C)C[C@H](NC(=O)OCC1CC(=O)N(Cc2ccccc2)C1)C(=O)N[C@@H](C[C@@H]1CCNC1=O)C(O)S(=O)(=O)O (stereo partly drawn)	50	> 50000	650	
CC(C)C[C@H](NC(=O)OCC1CCN(CC2CCCCC2)C1=O)C(=O)N[C@@H](C[C@@H]1CCNC1=O)C(O)S(=O)(=O)O (stereo partly drawn)	170	> 50000	220	20
CC(C)C[C@H](NC(=O)OC[C@@H]1CCC(=O)N1Cc1ccccc1)C(=O)N[C@@H](C[C@@H]1CCNC1=O)C(O)S(=O)(=O)O (stereo partly drawn)	90	> 50000	490	
CC(C)C[C@H](NC(=O)OC[C@@H]1CCC(=O)N1C[C@H]1C[C@@H]2CC[C@H]1C2)C(=O)N[C@@H](C[C@@H]1CCNC1=O)C(O)S(=O)(=O)O (stereo partly drawn)	60	> 50000	410	
CC(C)C[C@H](NC(=O)OC[C@@H]1CCC(=O)N1CC1CCCCC1)C(=O)N[C@H](C=O)C[C@@H]1CCNC1=O	50	> 50000	250	750
CC(C)C[C@H](NC(=O)OC[C@@H]1CCC(=O)N1CC1CCC(F)(F)CC1)C(=O)N[C@@H](C[C@@H]1CCNC1=O)C(O)S(=O)(=O)O (stereo partly drawn)	60	> 50000	540	
CC(C)C[C@H](NC(=O)OCC1CC(=O)N(CC2CCCCC2)C1)C(=O)N[C@@H](C[C@@H]1CCNC1=O)C(O)S(=O)(=O)O (stereo partly drawn)	50	> 50000	370	150
CC(C)C[C@H](NC(=O)OCC1CCN(C[C@H]2C[C@H]3C=C[C@@H]2C3)C1=O)C(=O)N[C@@H](C[C@@H]1CCNC1=O)C(O)S(=O)(=O)O (stereo partly drawn)	150	> 50000	550	
CC(C)C[C@H](NC(=O)OCC1CC(=O)N(CC2CC3C=CC2C3)C1)C(=O)N[C@@H](C[C@@H]1CCNC1=O)C(O)S(=O)(=O)O (stereo partly drawn)	80	> 50000	190	350
CC(C)C[C@H](NC(=O)OC[C@@H]1CCC(=O)N1CCc1ccccc1)C(=O)N[C@@H](C[C@@H]1CCNC1=O)C(O)S(=O)(=O)O (stereo partly drawn)	160	> 50000	550	
CC(C)C[C@H](NC(=O)OC[C@@H]1CCC(=O)N1Cc1ccco1)C(=O)N[C@@H](C[C@@H]1CCNC1=O)C(O)S(=O)(=O)O (stereo partly drawn)	50	> 50000	250	
